Experimental findings from PubChem BioAssay (NCI) are described below.

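Method: 48-hour compound exposure of cells in 96-well plates, five concentrations, linear interpolation of endpoints. Abbreviation: GI50, concentration required for 50% inhibition of growth. TGI: total growth inhibition.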

This assay has as its system MDA-MB-468 breast. In words: DTP human tumour cell line panel, 48 h.
By GI50 is commonly meant the concentration at which growth is held to half of that of the control. For orientation: TGI means the concentration giving total growth inhibition. A higher TGI goes with less potent growth arrest. Regarding `Cc1cc(C)n(-c2nnc3n2N=C(c2ccc(-c4ccccc4)cc2)CS3)n1`, the GI50 was 2.27 µM and the TGI was 6.76 µM.
In the case of `COc1ccc(/C=C(/c2ccccc2)[N+](=O)[O-])cc1`, the GI50 is 1.46 µM and the TGI worked out at 3.31 µM.
In the case of `CCCCCc1ccc(S(=O)(=O)Nc2cc(-c3csc(NC(=O)CN4CCN(CCO)CC4)n3)ccc2OC)cc1`, the GI50 was 1.75 µM and the TGI was determined as 3.6 µM.
Turning to `O=C(Nc1ccc(-n2cc(-c3ccncc3)c(-c3ccc(O)c(Cl)c3)n2)cc1)Nc1cccc(Cl)c1Cl`, the GI50 is 9.23 µM and the TGI is over 32.5 µM.
On to `CN1CCN(Cc2ccc(NC(=O)c3cncc(C#Cc4cnc5[nH]ncc5c4)c3)cc2C(F)(F)F)CC1`, for which the GI50 was 1.74 µM and the TGI worked out at 13.5 µM.
For `O=C(Nc1ccc(Cl)c(Cl)c1)Nc1ccccc1O`, in that order: 6.26 µM and 33.6 µM.
As for `NC(=S)N/N=C/c1cc(-c2cccc(N)c2)ccn1`, the GI50 was 1.43 µM and the TGI is 4.49 µM.
For `CN1CCN(c2ccc(Nc3ncc4cc(C#N)c(=O)n(C5CCCC5)c4n3)cc2)CC1`, the GI50 is 3.46 µM and the TGI is over 100 µM.
Consider `COc1ccc2c(c1)C(C)Cc1c(ncnc1-n1cnc3cc(C)ccc31)N2C` (stereo unspecified), for which the GI50 is 0.0341 µM and the TGI is 18.9 µM.
As for `Nc1ccccc1SC1CC(=O)N(c2ccc(Cl)c(Cl)c2)C1=O` (stereo unspecified), the GI50 was 18.4 µM and the TGI was over 100 µM.
Regarding `COC[C@]12CC[C@@H](C)[C@H](C)[C@H]1C1=CC[C@@H]3[C@@]4(C)CCCNC(C)(C)[C@@H]4CC[C@@]3(C)[C@]1(C)CC2`, the GI50 was 1.71 µM and the TGI was 3.43 µM.
For the molecule `C[C@]12CC[C@@H]3c4ccc(O)c([N+](=O)[O-])c4CC[C@H]3[C@@H]1CC[C@@H]2NS(=O)(=O)c1cccc(Br)c1`, the GI50 was 2.74 µM and the TGI stood at 7.69 µM.
Consider `CC/C=C/C/C=C/C/C=C/C/C=C/C/C=C/C/C=C/CCC(=O)Nc1ccn([C@@H]2O[C@H](CO)[C@@H](O)C2(F)F)c(=O)n1`, for which the GI50 is 0.384 µM and the TGI was over 64.6 µM.
With `COc1ccc(-c2csc(NC(=O)CSc3nc(C)c(-c4ccccc4)n3Nc3ccccc3)n2)cc1`, the GI50 was over 100 µM and the TGI was over 100 µM.
In the case of `COc1c(O)c(O)cc2c1-c1ccc(OC)c(=O)cc1C(NC(C)=O)CC2` (stereo unspecified), the GI50 is 16.9 µM and the total growth inhibition concentration (TGI) was over 100 µM.
For `N#Cc1ccc(OC(=O)Nc2ccc(Cl)c(Cl)c2)cc1`, in that order: 3.13 µM and 15.9 µM.
With `Cn1cc(-c2ccc(-c3cncc(Cl)c3N3CCC4(CCNC4=O)CC3)cc2)cn1`, the GI50 is 19.9 µM and the TGI is over 100 µM.
With `O=C(N/N=C/c1c(Cl)cccc1Cl)c1ccc(C(F)(F)F)nc1Nc1cccc(C(F)(F)F)c1`, the GI50 is 0.52 µM and the total growth inhibition concentration (TGI) was 3.62 µM.
As to `CCCCCCCCCCN1CCC(N2CCCCC2)CC1`, the GI50 was 1.44 µM and the total growth inhibition concentration (TGI) was determined as 3.01 µM.
For `CCCCCc1ccc(S(=O)(=O)Nc2cc(-c3csc(NC(C)=O)n3)ccc2N2CCN(C)CC2)cc1`, in that order: 3.73 µM and 8.42 µM.
Consider `COc1ccc(Cc2cnc(NC(=O)c3ccc4c(c3)OCCO4)s2)cc1`, for which the GI50 is 0.0376 µM and the TGI turned out to be 24.7 µM.
`COC(=O)CCC1=C(CC(=O)OC)C(C)=N/C1=C\c1[nH]c(-c2ccc[nH]2)cc1OC`: the GI50 is 3.48 µM and the TGI was found to be 17 µM.
Consider `Clc1cc(Cl)cc(Nc2ccc3cc(OCCCN4CCOCC4)ccc3n2)c1`, for which the GI50 was 2.2 µM and the concentration for total growth inhibition (TGI) was found to be 6.23 µM.
On to `O=C(CCCCCCNC(=O)C(O)(O)C(F)(F)F)Nc1ncc(-c2ccccc2)s1`, for which the GI50 was 0.748 µM and the TGI was 10.9 µM.
Take `O=C(NCc1ccc(S(=O)(=O)c2cc(F)cc(F)c2)cc1)c1ccc2nccn2c1`: the GI50 was 9.27 µM and the TGI was over 100 µM.
Consider `O=C1C(c2ccccc2)=C(N2CCc3ccccc32)OC1(Cl)Cl`, for which the GI50 is 1.63 µM and the TGI came to 3.25 µM.
The like results for `Cc1c2ccncc2c(C)c2c1[nH]c1ccccc12` were, in that order, 1.16 µM and 8.74 µM.
As for `CCN(CC)c1cc2oc3cc(N)cc(=N)c-3nc2cc1C`, the GI50 was 2.59 µM and the TGI was 9.37 µM.
`COc1ccc2c(c1)c(-c1cc(N)n3nc(-c4cn(C)c5ccc(OC)cc45)cc3n1)cn2C`: the GI50 was 1.87 µM and the TGI amounted to 3.66 µM.
As for `Cn1c(=O)c2c(ncn2CC(=O)Nc2ccc(-c3ccccc3)nn2)n(C)c1=O`, the GI50 is 31.4 µM and the TGI was over 100 µM.
On to `O=C(OCc1ccc2c(Cl)cc(Cl)c(O)c2n1)N1CCN(C(=O)c2cc3cc(F)ccc3[nH]2)CC1`, for which the GI50 was 0.558 µM and the TGI is over 27.9 µM.
As for `COC(C(=O)[C@@H](O)[C@@H](C)O)[C@@H]1Cc2cc3cc(O[C@H]4C[C@@H](O[C@H]5C[C@@H](O)[C@H](O)C(C)O5)[C@H](O)C(C)O4)c(C)c(O)c3c(O)c2C(=O)[C@H]1O[C@H]1C[C@@H](O[C@H]2C[C@@H](O[C@H]3C[C@@H](O)[C@H](OC)C(C)O3)[C@@H](O)C(C)O2)[C@H](O)C(C)O1` (stereo partly specified), the GI50 was 0.0329 µM and the TGI turned out to be 0.259 µM.
Regarding `O=c1oc2ccc(Br)cc2c(=O)n1-c1ccc(F)cc1F`, the GI50 is 2.09 µM and the concentration for total growth inhibition (TGI) was found to be 5.92 µM.
As to `COc1ccc2c(Oc3ccc(NC(=O)c4c(C)n(CC(C)(C)O)n(-c5ccccc5)c4=O)nc3)ccnc2c1`, the GI50 is 16.1 µM and the TGI was over 96.6 µM.
For `CC1C(c2ccc3c(c2)OCO3)c2cc3c(cc2OC1N1CCOCC1)OCO3` (stereo unspecified), in that order: 19.6 µM and 60.3 µM.
Regarding `O=C(N/N=C/c1ccc([N+](=O)[O-])o1)c1ccc(O)cc1`, the GI50 is 2.44 µM and the TGI stood at 10.7 µM.
As to `C/C(=N\NC(=S)N1CC2CCC(CC2)C1)c1ccccn1`, the GI50 is under 0.01 µM and the TGI worked out at 0.104 µM.
Consider `O=C(NO)c1ccc(CN(c2cnccn2)c2cnccn2)cc1`, for which the GI50 is 10.5 µM and the concentration for total growth inhibition (TGI) was determined as 28.4 µM.
